Ends that are not written are not given here.
Target: T1, Recombinant Human Insulin Receptor (28-956) (soluble insulin receptor, SIR) (Homo sapiens, UniProt P06213)
T1 construct: Recombinant Human Insulin Receptor (28-956); purchased GT/TECHNE Corp
Test: BIAcore determination of peptide-SIR binding (peptide immobilized on sensor chip CM5, soluble insulin receptor as analyte)
Conditions: sensor chip CM5, amine coupling, HBS-EP buffer, SIR 100 nM to 0.781 nM, flow 10 μl/min; for koff: read-out: Dissociation rate constant (peptide-SIR)
Method: The affinity for the soluble insulin receptor identified by SEQ ID NO:1 is compared by the method using BIAcore (BIAcore AB) (as described in Am. J. Physiol. 272 (1997) E1089-1098). Briefly, a solution of the soluble insulin receptor is brought into contact with the surface of the ready-made sensor chip with the peptide defined by SEQ ID NO:1 as immobilized thereon, and the interaction is measured.
The dissociation constant (KD) of the peptide P14 obtained in Example 3 was determined using BIAcore upgrade (Biacore AB) and the analysis software BIA evaluation version 3.0 (Biacore AB).
(§1) The ligand was immobilized on the sensor chip CM5 research grade (Biacore AB) by the amine coupling method. Thus, the peptide mentioned above was dissolved in 20 mM carbonate buffer (pH 8.5) (500 μg/ml), and 100 μl of the solution was passed through the flow cell at a flow rate of 5 μl/min. The amount of the peptide immobilized was 200 RU (resonance units).
Recombinant Human Insulin Receptor (28-956) (GT/TECHNE Corp.) was used as the analyte soluble insulin receptor (SIR). To 50 mg in a vial was added HBS-EP buffer (250 ml) for thorough dissolution ([…]), and the solution was 10-fold diluted to give a 100 nM solution. Eight concentration levels from 100 nM to 0.781 nM were prepared by subsequent repetitions of doubling dilution, and measurements were carried out using HBS-EP buffer (10 mM HEPES pH 7.4, 0.15M NaCl, 3 mM EDTA, 0.005% Surfactant P20) (Biacore AB) as a running solution; the rate of flow was 10 μl/min. A sensorgram was thus obtained.
The dissociation constant (KD) of the peptide P15 obtained in Example 6 was determined using BIAcore upgrade (Biacore AB) and the analysis software BIA evaluation version 3.0 (Biacore AB).
as §1, with “130 RU.” for “200 RU (resonance units).”
Recombinant Human Insulin Receptor (28-956) (GT/TECHNE Corp.) was used as the analyte SIR. Eight concentration levels from 100 nM to 0.781 nM were prepared by subsequent repetitions of doubling dilution, which was started from diluting 100 nM solution, and measurements were carried out using HBS-EP buffer as a running solution; the rate of flow was 10 μl/min. A sensorgram was thus obtained.
The dissociation constant (KD) of the peptide P21 obtained in Example 7 was determined using BIAcore upgrade (Biacore AB) and the analysis software BIA evaluation version 3.0 (Biacore AB).
as §1, with “270 RU.” for “200 RU (resonance units).”

T1 sequence (P06213 28-956): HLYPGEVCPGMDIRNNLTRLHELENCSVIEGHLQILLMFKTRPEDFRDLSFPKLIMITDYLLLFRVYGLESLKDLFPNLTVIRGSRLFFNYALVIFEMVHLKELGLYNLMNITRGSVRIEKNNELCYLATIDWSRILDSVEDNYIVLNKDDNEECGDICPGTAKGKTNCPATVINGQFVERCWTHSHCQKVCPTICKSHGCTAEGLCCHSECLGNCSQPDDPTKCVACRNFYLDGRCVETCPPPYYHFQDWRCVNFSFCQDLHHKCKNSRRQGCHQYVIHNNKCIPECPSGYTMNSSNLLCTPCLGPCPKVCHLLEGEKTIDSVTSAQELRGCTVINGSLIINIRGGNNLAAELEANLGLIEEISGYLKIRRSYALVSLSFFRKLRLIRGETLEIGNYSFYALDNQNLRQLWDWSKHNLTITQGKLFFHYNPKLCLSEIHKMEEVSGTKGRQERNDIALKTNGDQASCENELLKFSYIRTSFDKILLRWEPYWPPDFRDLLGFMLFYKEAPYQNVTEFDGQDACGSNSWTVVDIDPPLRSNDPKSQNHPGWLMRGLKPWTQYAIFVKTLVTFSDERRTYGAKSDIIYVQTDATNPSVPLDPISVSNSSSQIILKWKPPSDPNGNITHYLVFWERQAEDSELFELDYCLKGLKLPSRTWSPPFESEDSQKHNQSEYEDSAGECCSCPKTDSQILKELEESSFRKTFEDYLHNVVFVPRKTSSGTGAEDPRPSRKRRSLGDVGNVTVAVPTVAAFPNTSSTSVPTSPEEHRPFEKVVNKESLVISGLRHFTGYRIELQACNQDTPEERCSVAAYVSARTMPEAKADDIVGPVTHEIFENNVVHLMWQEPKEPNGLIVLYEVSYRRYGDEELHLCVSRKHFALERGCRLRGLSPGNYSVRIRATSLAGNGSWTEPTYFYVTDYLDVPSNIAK

Binding rate constant (peptide-SIR)	koff	Sequence
8.6E+02	0.02 s⁻¹	CASDIVEGIYL [Peptide P15, CASDIVEGIYL]
9.7E+03	0.015 s⁻¹	CASDIVEGLYIVLAER [Peptide P14, CASDIVEGLYIVLAER]
5.1E+04	0.6 s⁻¹	CQHILGSDIVEGIYL [Peptide P21, CQHILGSDIVEGIYL]

From patent US7906618B2, “Peptide capable of binding to insulin-binding protein and adsorbent” (Kaneka Corporation, priority 2004, dated 2011)
